Where a SMILES comes first, the peptide text is derived from it.

The nature of data set [1]: Biodistribution in bone of BALB/c nu/nu mouse measured in organ after 1 hr. Format: ADME, organism-based, Bone element. As to conditions: in vivo.
A short description of data set [2]: Biodistribution in muscle of BALB/c nu/nu mouse measured in organ after 1 hr. Format: ADME, organism-based. Conditions: in vivo.
A short description of data set [3]: Biodistribution in stomach of BALB/c nu/nu mouse measured in organ after 1 hr. Conditions: in vivo. Format: ADME, organism-based.
A short description of data set [4]: Biodistribution in spleen of BALB/c nu/nu mouse measured in organ after 1 hr. It counts as ADME, organism-based. Conditions: in vivo.
Data set [5] is described as follows: Biodistribution in liver of BALB/c nu/nu mouse measured in organ after 1 hr. Format: ADME, organism-based. Conditions: in vivo.
Data set [6] addresses T1, Receptor tyrosine-protein kinase erbB-2 (Homo sapiens, UniProt P04626). The data set can be described thus: Binding affinity to HER2 in human BT-474 cells assessed as dissociation constant by measuring high affinity ligand binding site by LigandTracer technique. Format: cell-based.
Data set [7] has as its target T1, Receptor tyrosine-protein kinase erbB-2. The data set can be described thus: Binding affinity to HER2 in human BT474 cells assessed as dissociation constant by measuring low affinity ligand binding site by LigandTracer technique. Format: cell-based, BT-474.
The nature of data set [8]: Biodistribution in Carcass of BALB/c nu/nu mouse measured in organ after 1 hr. Format: ADME, organism-based. As to conditions: in vivo.
The nature of data set [9]: Biodistribution in Gastrointestinal tract of BALB/c nu/nu mouse measured in organ after 1 hr. Format: ADME, organism-based. Conditions: in vivo.
Data set [10] is described as follows: Biodistribution in brain of BALB/c nu/nu mouse measured in organ after 1 hr. Conditions: in vivo. It counts as ADME, organism-based.
Data set [11] can be described thus: Biodistribution in pancreas of BALB/c nu/nu mouse measured in organ after 1 hr. Format: ADME, organism-based. As to conditions: in vivo.
The nature of data set [12]: Biodistribution in lung of BALB/c nu/nu mouse measured in organ after 1 hr. Conditions: in vivo. Format: ADME, organism-based.
Data set [13] in a line: Biodistribution in kidney of BALB/c nu/nu mouse measured in organ after 1 hr. Format: ADME, organism-based. Conditions: in vivo.

T1 sequence (P04626 whole entry): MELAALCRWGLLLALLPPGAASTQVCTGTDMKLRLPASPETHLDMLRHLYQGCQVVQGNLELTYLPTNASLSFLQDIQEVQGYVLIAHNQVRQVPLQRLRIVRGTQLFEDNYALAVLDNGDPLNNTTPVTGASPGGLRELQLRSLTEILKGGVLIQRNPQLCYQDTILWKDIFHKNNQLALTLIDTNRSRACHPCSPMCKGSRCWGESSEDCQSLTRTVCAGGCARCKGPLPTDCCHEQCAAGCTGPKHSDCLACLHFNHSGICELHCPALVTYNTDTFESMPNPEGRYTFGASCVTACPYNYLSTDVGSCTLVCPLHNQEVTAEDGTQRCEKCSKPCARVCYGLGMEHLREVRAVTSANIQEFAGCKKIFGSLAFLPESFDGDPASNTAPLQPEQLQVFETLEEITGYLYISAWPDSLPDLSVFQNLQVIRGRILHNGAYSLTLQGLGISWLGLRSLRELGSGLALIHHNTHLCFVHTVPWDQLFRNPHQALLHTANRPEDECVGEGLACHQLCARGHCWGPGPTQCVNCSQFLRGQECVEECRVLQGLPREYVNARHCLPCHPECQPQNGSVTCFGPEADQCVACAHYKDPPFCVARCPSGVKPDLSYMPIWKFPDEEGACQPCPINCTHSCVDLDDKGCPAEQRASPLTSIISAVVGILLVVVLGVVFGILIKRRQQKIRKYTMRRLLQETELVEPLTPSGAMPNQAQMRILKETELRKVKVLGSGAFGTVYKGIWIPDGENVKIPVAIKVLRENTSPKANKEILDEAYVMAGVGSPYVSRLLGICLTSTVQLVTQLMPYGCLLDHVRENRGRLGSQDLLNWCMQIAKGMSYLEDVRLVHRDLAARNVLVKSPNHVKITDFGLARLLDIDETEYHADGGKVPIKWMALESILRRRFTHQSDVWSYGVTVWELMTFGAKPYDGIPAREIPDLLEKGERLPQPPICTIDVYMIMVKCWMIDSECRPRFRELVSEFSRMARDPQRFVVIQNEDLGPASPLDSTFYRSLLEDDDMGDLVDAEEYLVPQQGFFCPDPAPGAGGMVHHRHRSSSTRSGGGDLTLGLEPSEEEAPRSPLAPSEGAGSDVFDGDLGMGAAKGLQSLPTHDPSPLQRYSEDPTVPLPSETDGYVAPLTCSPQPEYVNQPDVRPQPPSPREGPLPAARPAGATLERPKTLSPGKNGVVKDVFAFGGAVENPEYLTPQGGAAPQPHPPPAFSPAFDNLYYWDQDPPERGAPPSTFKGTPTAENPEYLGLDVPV

For `CC(C)[C@H](NC(=O)[C@H](C)NC(=O)[C@@H](NC(=O)[C@H](CC(N)=O)NC(=O)[C@@H](NC(=O)[C@H](CC(=O)O)NC(=O)[C@H](CCC(N)=O)NC(=O)CN(CCN(CCN(CC(=O)O)CC(=O)O)CC(=O)O)CC(=O)O)C(C)C)[C@@H](C)O)C(=O)N[C@@H](C)C(=O)N[C@@H](Cc1c[nH]c2ccccc12)C(N)=O` (HELM PEPTIDE1{[O=C(O)CN(CCN(CC(=O)O)CC(=O)O)CCN(CC(=O)O)CC(=O)[*:2]].Q.D.V.N.T.A.V.A.W.[am]}$$$$V2.0), the Drug uptake in data set [1] amounted to 0.01 %ID; in [2], 0.04 %ID; in data set [3] it was 0.05 %ID; in data set [4], 0.02 %ID; in data set [5], 0.47 %ID; in data set [8], 3.47 %ID. The Drug uptake stood at 0.83 %ID in [9]; 0 %ID in data set [10]; 0.01 %ID in data set [11]; 0.06 %ID in data set [12]; 2 %ID in data set [13]. For the same compound, the Kd – broadly, a measure of binding affinity in units of concentration – in data set [6] was 4.9 nM; in data set [7], 103 nM.

The values are drawn from ChEMBL document CHEMBL5230135, “Peptide Ligands Specifically Targeting HER2 Receptor and the Role Played by a Synthetic Model System of the Receptor Extracellular Domain: Hypothesized Future Perspectives” (J Med Chem, 2020).
